For this assay, the system named is CD2F1 mice, L1210 leukemia ip, survival T/C. The assay is described as follows: NCI In Vivo Anticancer Drug Screen. Data for tumor model L1210 Leukemia (intraperitoneal) in CD2F1 (CDF1) mice. Particulars: endpoint: mean survival time, higher = longer survival. The procedure, abridged:
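Tumor-bearing mice (transplanted tumor) were split into treated and vehicle control groups, and the measured endpoint of each treated group was divided by that of its vehicle controls.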

Setting [1] is: dose: 100.0 mg/kg/injection, schedule: Q04DX003 (ip), vehicle: Klucel (hydroxypropylcellulose) (HPC).
[2] abbreviates: dose: 200.0 mg/kg/injection, schedule: Q04DX003 (ip), vehicle: Klucel (hydroxypropylcellulose) (HPC).
Where [3] appears, read: dose: 400.0 mg/kg/injection, schedule: Q04DX003 (ip), vehicle: Klucel (hydroxypropylcellulose) (HPC).
The mark [4] stands for this setting: dose: 100.0 mg/kg/injection, schedule: Q04DX003 (ip), vehicle: saline with Tween-80.
[5] abbreviates: dose: 200.0 mg/kg/injection, schedule: Q04DX003 (ip), vehicle: saline with Tween-80.
[6] abbreviates: dose: 400.0 mg/kg/injection, schedule: Q04DX003 (ip), vehicle: saline with Tween-80.
[7] abbreviates: dose: 100.0 mg/kg/injection, schedule: Q01DX001 (ip), vehicle: saline with Tween-80.
[8] abbreviates: dose: 100.0 mg/kg/injection, schedule: Q01DX009 (ip), vehicle: saline with Tween-80.
[9] abbreviates: dose: 200.0 mg/kg/injection, schedule: Q01DX001 (ip), vehicle: saline with Tween-80.
The mark [10] stands for this setting: dose: 400.0 mg/kg/injection, schedule: Q01DX001 (ip), vehicle: saline with Tween-80.
[11] abbreviates: dose: 100.0 mg/kg/injection, schedule: Q04DX003 (ip), vehicle: saline.
Where [12] appears, read: dose: 200.0 mg/kg/injection, schedule: Q04DX003 (ip), vehicle: saline.
Setting [13] is: dose: 200.0 mg/kg/injection, schedule: Q01DX009 (ip), vehicle: saline with Tween-80.
Where [14] appears, read: dose: 100.0 mg/kg/injection, schedule: Q01DX001 (ip), vehicle: saline.
Setting [15] is: dose: 200.0 mg/kg/injection, schedule: Q01DX001 (ip), vehicle: saline.

Structures are written as SMILES. Where “and” joins values, the source holds several entries; their conditions need not be identical. Equal values may be shown once. Inconclusive results and toxic doses are left out.

Turning to `O=C(Nc1ccccc1)Nc1ccc(Cl)c(Cl)c1`, the T/C (dose: 100.0 mg/kg/injection, schedule: Q04DX003 (ip), vehicle: acetone) was 98 % of control; the T/C (dose: 200.0 mg/kg/injection, schedule: Q04DX003 (ip), vehicle: acetone) is 101 % of control; the T/C (dose: 400.0 mg/kg/injection, schedule: Q04DX003 (ip), vehicle: acetone) is 106 % of control.
As for `CCOC(=O)CCN(C(=O)OCc1ccccc1)N(C)C(=O)OCc1ccccc1`, the T/C runs as follows: (dose: 25.0 mg/kg/injection, schedule: Q04DX003 (ip), vehicle: Klucel (hydroxypropylcellulose) (HPC)) 91 % of control; (dose: 50.0 mg/kg/injection, schedule: Q04DX003 (ip), vehicle: Klucel (hydroxypropylcellulose) (HPC)) 94 % of control; under setting [1], 89 % of control; under setting [2], 89 % of control; under setting [3], 100 % of control.
Take `c1ccc(COCC2OC(C3N(c4ccccc4)CCN3c3ccccc3)C(OCc3ccccc3)C2OCc2ccccc2)cc1` (stereo not given): the T/C by setting is: (dose: 12.5 mg/kg/injection, schedule: Q01DX005 (ip), vehicle: distilled water + Tween-80) 102 % of control; (dose: 25.0 mg/kg/injection, schedule: Q01DX005 (ip), vehicle: distilled water + Tween-80) 98 % of control; (dose: 50.0 mg/kg/injection, schedule: Q01DX005 (ip), vehicle: distilled water + Tween-80) 102 % of control; (dose: 100.0 mg/kg/injection, schedule: Q01DX005 (ip), vehicle: distilled water + Tween-80) 97 % of control; (dose: 200.0 mg/kg/injection, schedule: Q01DX005 (ip), vehicle: distilled water + Tween-80) 92 % of control.
Take `CSC(=O)NC(=O)c1ccccc1`: the T/C is 100 % of control under setting [4], 103 % of control under setting [5] and 105 % of control under setting [6].
As for `O=S(=O)(F)c1ccc(Cl)c(Cl)c1S`, the T/C (dose: 100.0 mg/kg/injection, schedule: Q04DX002 (ip), vehicle: saline with Tween-80) was 98 % of control and the T/C (dose: 200.0 mg/kg/injection, schedule: Q04DX002 (ip), vehicle: saline with Tween-80) is 98 % of control.
With `NC(=O)c1cc2ccncc2c2ccccc12`, the T/C was 97 % of control under setting [4], 97 % of control under setting [5] and 106 % of control under setting [6].
In the case of `COc1ccc2c3c(ccc2c1)C1=NCCC1(C)CC3` (stereo not given), the T/C was 101 % of control (dose: 100.0 mg/kg/injection, schedule: Q01DX001 (sc), vehicle: Klucel (hydroxypropylcellulose) (HPC)); 105 % of control (dose: 100.0 mg/kg/injection, schedule: Q04DX003 (sc), vehicle: steriod suspending solution); 101 % of control (dose: 200.0 mg/kg/injection, schedule: Q01DX001 (sc), vehicle: Klucel (hydroxypropylcellulose) (HPC)); 102 % of control (dose: 200.0 mg/kg/injection, schedule: Q04DX003 (sc), vehicle: steriod suspending solution); 93 % of control (dose: 400.0 mg/kg/injection, schedule: Q01DX001 (sc), vehicle: Klucel (hydroxypropylcellulose) (HPC)); 108 % of control (dose: 400.0 mg/kg/injection, schedule: Q04DX003 (sc), vehicle: steriod suspending solution).
`COCC/C(COC)=N/N`: the T/C is 104 % of control under setting [7], 94 % of control under setting [8], 108 % of control under setting [9] and 108 % of control under setting [10].
For the compound `CC(=O)Nc1ccc2c(Nc3ccc(NS(C)(=O)=O)cc3)c3ccccc3nc2c1`, the T/C runs as follows: (dose: 8.0 mg/kg/injection, schedule: Q01DX009 (ip), vehicle: saline with Tween-80) 192 % of control; (dose: 12.0 mg/kg/injection, schedule: Q01DX009 (ip), vehicle: saline with Tween-80) 203 % of control; (dose: 18.0 mg/kg/injection, schedule: Q01DX009 (ip), vehicle: saline with Tween-80) 105 % of control; under setting [11], 122 % of control; under setting [12], 101 % of control.
Regarding `COc1cccc(NC2=NCCO2)c1`, the T/C by setting is: under setting [4], 96 % of control; under setting [5], 98 % of control.
As to `CC(C)(C(=O)c1ccccc1)C(OC(=O)c1ccccc1)c1ccccc1` (stereo not given), the T/C under setting [7] is 106 % of control, the T/C under setting [9] is 98 % of control and the T/C under setting [10] was 104 % of control.
In the case of `CSc1nc(NC(C)C)nc(NC(C)C)n1`, the T/C was 117 % of control (dose: 50.0 mg/kg/injection, schedule: Q01DX009 (ip), vehicle: saline with Tween-80); 109 % of control under setting [8]; 92 % of control under setting [11]; 111 % of control under setting [13]; 103 % of control under setting [12].
With `CC(C(=O)c1ccc(-c2ccccc2)cc1)C(Cl)c1ccccc1` (stereo not given), the T/C runs as follows: under setting [4], 95 % of control; under setting [5], 95 % of control; under setting [6], 100 % of control.
As to `c1ccc(CNCc2ccccc2)cc1`, the T/C is 97 % of control under setting [1] and 100 % of control under setting [2].
Turning to `NC(=Nc1ccccc1)SCCS(=O)(=O)O`, the T/C reads like this: under setting [4], 102 % of control; under setting [5], 100 % of control; under setting [6], 104 % of control.
As to `CN(C)c1ccc(C=C(c2ccc(N)cc2)c2ccc(N)cc2)cc1`, the T/C was 91 % of control under setting [8]; 92 % of control under setting [13]; 94 % of control (dose: 400.0 mg/kg/injection, schedule: Q01DX009 (ip), vehicle: saline with Tween-80).
On to `O=c1cc(-c2ccccc2)ss1`, for which the T/C runs as follows: under setting [1], 104 % of control; under setting [2], 100 % of control; under setting [3], 105 % of control.
In the case of `c1ccc2c(NCCCCCCCCNc3c4ccccc4nc4ccccc34)c3ccccc3nc2c1`, the T/C is 120 % of control (dose: 1.25 mg/kg/injection, schedule: Q01DX009 (ip), vehicle: Klucel (hydroxypropylcellulose) (HPC)); 114 % of control and 100 % of control (dose: 2.5 mg/kg/injection, schedule: Q01DX009 (ip), vehicle: Klucel (hydroxypropylcellulose) (HPC)); 119 % of control and 120 % of control and 111 % of control (dose: 5.0 mg/kg/injection, schedule: Q01DX009 (ip), vehicle: Klucel (hydroxypropylcellulose) (HPC)); 109 % of control and 111 % of control (dose: 10.0 mg/kg/injection, schedule: Q01DX009 (ip), vehicle: Klucel (hydroxypropylcellulose) (HPC)); 117 % of control (dose: 20.0 mg/kg/injection, schedule: Q01DX009 (ip), vehicle: Klucel (hydroxypropylcellulose) (HPC)).
Regarding `O=C1NCCS1`, the T/C (dose: 75.0 mg/kg/injection, schedule: Q01DX001 (ip), vehicle: saline) was 98 % of control and the T/C (dose: 150.0 mg/kg/injection, schedule: Q01DX001 (ip), vehicle: saline) is 104 % of control.
Consider `Cc1ccc(N2CC=C(c3ccccc3)OP2(=O)N(CCCl)CCCl)cc1` (stereo not given), for which the T/C was 100 % of control (dose: 31.25 mg/kg/injection, schedule: Q01DX001 (ip), vehicle: saline); 102 % of control (dose: 62.5 mg/kg/injection, schedule: Q01DX001 (ip), vehicle: saline); 100 % of control (dose: 125.0 mg/kg/injection, schedule: Q01DX001 (ip), vehicle: saline); 100 % of control (dose: 250.0 mg/kg/injection, schedule: Q01DX001 (ip), vehicle: saline); 100 % of control (dose: 500.0 mg/kg/injection, schedule: Q01DX001 (ip), vehicle: saline).
As for `O=C(Nc1c(Oc2ccc(Cl)cc2)ccc(Cl)c1S(=O)(=O)O)Nc1c(Oc2ccc(Cl)c(Cl)c2)ccc(Cl)c1S(=O)(=O)O`, the T/C is, setting by setting: under setting [14], 93 % of control; under setting [15], 88 % of control.
Consider `ON(C(=Nc1ccc(Cl)cc1)c1ccccc1)c1ccccc1`, for which the T/C under setting [14] is 105 % of control; the T/C under setting [11] was 100 % of control; the T/C under setting [15] is 97 % of control; the T/C under setting [12] is 102 % of control; the T/C (dose: 400.0 mg/kg/injection, schedule: Q01DX001 (ip), vehicle: saline) is 100 % of control; the T/C (dose: 400.0 mg/kg/injection, schedule: Q04DX003 (ip), vehicle: saline) is 100 % of control.

The values above are taken from PubChem BioAssay AID256 (DTP/NCI, 2004).
